The values that follow come from patent US8637684B2, “Tautomycetin and tautomycetin analog biosynthesis” (Wisconsin Alumni Research Foundation, priority 2010, dated 2014).

The IC50 is the concentration needed to halve the response being measured. Usually Ki stands for a dissociation constant, usually derived from enzyme kinetics or from competition with a known ligand. A low value points to higher affinity.

One assay deals with PP1. The note with it: cited from earlier work.
The next assay addresses T1, HePTP (Homo sapiens, UniProt P35236).
T1 sequence (P35236 1-360): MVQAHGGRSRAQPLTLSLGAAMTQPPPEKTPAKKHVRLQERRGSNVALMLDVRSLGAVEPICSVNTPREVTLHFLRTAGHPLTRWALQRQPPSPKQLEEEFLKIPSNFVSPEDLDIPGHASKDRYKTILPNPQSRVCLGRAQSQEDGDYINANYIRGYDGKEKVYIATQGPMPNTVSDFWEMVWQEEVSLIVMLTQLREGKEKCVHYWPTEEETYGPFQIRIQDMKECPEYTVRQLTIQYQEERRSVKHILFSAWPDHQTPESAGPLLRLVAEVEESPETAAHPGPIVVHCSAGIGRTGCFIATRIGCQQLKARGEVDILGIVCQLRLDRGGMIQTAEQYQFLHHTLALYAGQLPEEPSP
Put plainly: PTP activity assay with pNPP as substrate: HePTP. The following applies: pNPP as substrate at Km, pH 7.0, 25° C., I = 0.15 M. In kind it is biochemical.

For another assay, the target named is T2, CD45 (Homo sapiens, UniProt P08575).
T2 sequence (P08575 26-1306): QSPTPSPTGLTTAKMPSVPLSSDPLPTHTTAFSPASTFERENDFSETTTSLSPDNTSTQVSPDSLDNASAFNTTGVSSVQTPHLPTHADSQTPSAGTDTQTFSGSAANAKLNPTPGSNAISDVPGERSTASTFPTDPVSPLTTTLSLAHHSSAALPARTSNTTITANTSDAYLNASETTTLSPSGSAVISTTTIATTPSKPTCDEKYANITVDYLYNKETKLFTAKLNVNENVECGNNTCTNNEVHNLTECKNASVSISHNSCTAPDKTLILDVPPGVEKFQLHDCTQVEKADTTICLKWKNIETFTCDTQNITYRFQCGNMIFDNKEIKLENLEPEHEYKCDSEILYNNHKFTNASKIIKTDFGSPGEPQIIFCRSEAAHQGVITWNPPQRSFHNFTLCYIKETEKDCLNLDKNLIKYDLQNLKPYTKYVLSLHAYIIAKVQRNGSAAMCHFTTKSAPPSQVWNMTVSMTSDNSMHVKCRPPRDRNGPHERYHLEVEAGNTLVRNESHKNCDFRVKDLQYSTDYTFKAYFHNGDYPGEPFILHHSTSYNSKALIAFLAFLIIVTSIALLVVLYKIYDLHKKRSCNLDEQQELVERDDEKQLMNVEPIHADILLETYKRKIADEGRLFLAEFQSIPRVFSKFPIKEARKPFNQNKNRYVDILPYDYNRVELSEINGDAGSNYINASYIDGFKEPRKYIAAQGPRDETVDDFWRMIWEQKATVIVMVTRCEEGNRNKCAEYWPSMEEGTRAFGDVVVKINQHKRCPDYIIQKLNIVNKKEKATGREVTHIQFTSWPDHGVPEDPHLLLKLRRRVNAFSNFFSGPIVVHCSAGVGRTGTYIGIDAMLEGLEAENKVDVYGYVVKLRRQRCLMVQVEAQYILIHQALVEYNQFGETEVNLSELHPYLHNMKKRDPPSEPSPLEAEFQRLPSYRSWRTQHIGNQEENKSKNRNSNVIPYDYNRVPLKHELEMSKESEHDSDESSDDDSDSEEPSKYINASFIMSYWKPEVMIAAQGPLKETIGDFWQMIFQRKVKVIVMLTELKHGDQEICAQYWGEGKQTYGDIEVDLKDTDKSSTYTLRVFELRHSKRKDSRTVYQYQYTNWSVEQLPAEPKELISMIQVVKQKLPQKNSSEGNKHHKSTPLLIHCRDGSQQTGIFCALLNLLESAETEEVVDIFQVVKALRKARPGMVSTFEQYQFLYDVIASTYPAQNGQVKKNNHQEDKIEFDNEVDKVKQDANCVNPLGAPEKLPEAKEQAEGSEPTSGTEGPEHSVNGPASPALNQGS
Put plainly: PTP activity assay with pNPP as substrate: CD45. In kind it is biochemical. The following applies: pNPP as substrate at Km, pH 7.0, 25° C., I = 0.15 M.

In another assay the target is T3, SHP2 (Homo sapiens, UniProt Q06124).
T3 construct: The expression and purification of the SHP2 catalytic domain (residues 262-528) were described previously; made in house
T3 sequence (Q06124 262-528): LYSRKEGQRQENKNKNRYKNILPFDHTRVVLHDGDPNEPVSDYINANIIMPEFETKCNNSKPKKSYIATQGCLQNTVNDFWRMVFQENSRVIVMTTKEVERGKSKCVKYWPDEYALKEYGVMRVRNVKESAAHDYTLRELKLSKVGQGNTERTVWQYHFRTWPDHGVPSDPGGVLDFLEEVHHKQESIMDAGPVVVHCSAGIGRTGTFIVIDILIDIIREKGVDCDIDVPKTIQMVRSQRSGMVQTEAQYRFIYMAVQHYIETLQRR
Put plainly: Ki measurement, steady-state kinetic analysis of SHP2-catalyzed pNPP hydrolysis. It is filed as biochemical.

Assay [1] deals with TCR-mediated tyrosine phosphorylation in Jurkat T cells. Put plainly: Anti-CD3 (TCR) induced tyrosine phosphorylation in Jurkat T cells, immunoblot. The note with it: 2-4 μM, 2 hours pretreatment, anti-CD3 stimulation. It is filed as cell-based. The protocol:
Jurkat T cells were grown at 37° C. under an atmosphere of 5% CO2 in RPMI medium 1640 supplemented with 10% FBS. Cells were pretreated with different concentrations of TTN, TTN D-1, or TTM for 2 hours and stimulated with […] anti-CD3 antibody (OKT3; eBioscience) for 5 min and 30 min, respectively. Subsequently, cells were spinned down at 2000 rpm in 4° C., and cell pellets were lysed in 50 mM Tris-HCl (pH 7.5), 150 mM NaCl, 10% glycerol, 1% NP-40, 50 mM NaF, 10 mM pyrophosphate, 5 mM idoacetate, 1 mM sodium orthovanadate, and the protease inhibitor mixture. After 30 min lysing on ice, the cell lysates were centrifuged at 13,200 rpm for 15 min. Total cellular proteins were separated by SDS/PAGE and transferred electrophoretically to nitrocellulose membrane, which was immunoblotted by appropriate antibodies followed by incubation with HRP-conjugated secondary antibodies. Blots were developed using Pierce Pico ECL reagent (Thermo) according to the manufacturer's instructions.
TTN induces immunosuppression by suppression of TCR-mediated tyrosine phosphorylation and ERK1/2 activity in T cells (Shim et al., 2002). However, the mechanism of action for TTN's ability to block TCR signaling remains undefined. […]
On the technique in general: A western blot detects proteins with antibodies after separation by electrophoresis.

Method for CD45: (§1) The PTP activity was assayed using pNPP as a substrate at 25° C. in 50 mM 3,3-dimethylglutarate buffer, pH 7.0, containing 1 mM EDTA with an ionic strength of 0.15 M adjusted by NaCl. TTM, TTN and the engineered analogs were analyzed for inhibition of a panel of PTPs at 10 μM compound concentration. For each enzyme screened, test compounds were diluted to 20 μM in 100 μL and combined with 50 μL pNPP at a concentration of 4×Km. The reaction was initiated by the addition of 50 μL of 4× concentrated enzyme and pNPP was allowed to convert to the product p-nitrophenol. The reaction was quenched by the addition of 50 μL of 5N NaOH. Nonenzymatic hydrolysis of pNPP was corrected by measuring the control without the addition of enzyme. Production of p-nitrophenol was monitored by a Spectra MAX385 microplate spectrophotometer (Molecular Devices) at 405 nm using a molar extinction coefficient of 18,000 M^−1 cm^−1. IC50 values were calculated by fitting the absorbance at 405 nm versus inhibitor concentration to the following equation: AI/A0=IC50/(IC50+[I]) where AI is the absorbance at 405 nm of the sample in the presence of inhibitor; Ao is the absorbance at 405 nm in the absence of inhibitor; and [I] is the concentration of the inhibitor.
Method for HePTP: as §1
Method for SHP2: The SHP2-catalyzed hydrolysis of pNPP in the presence of TTN or TTN D-1 was assayed at 25° C. and in the assay buffer described above. The mode of inhibition and K, value were determined in the following manner. At various fixed concentrations of the inhibitor (0-3 Ki), the initial rate at a series of pNPP concentrations was measured by following the production of p-nitrophenol as describe above, ranging from 0.2- to 5-fold the apparent Km values. The data were fitted to appropriate equations using SigmaPlot-Enzyme Kinetics to obtain the inhibition constant and to assess the mode of inhibition.
To further characterize SHP2 inhibition by the TTN and TTN D-1, the IC50 values for TTN and TTN D-1 were measured at a pNPP concentration fixed at the experimentally determined Km for each PTP. […] To establish the mechanism of SHP2 inhibition by TTN and TTN D-1, the inhibition constants and mode of inhibition were determined by steady-state kinetic analysis of the SHP2-catalyzed reaction.

On to tautomycetin [TTN], for which, in the assay with PP1 (literature (Mitsuhashi et al., 2001)), the “preferential inhibition of PP1 relative to PP2A” value is “about 40 fold”. The half-maximal inhibitory concentration (IC50) in the assay with PP1 (literature values) was 0.0016 µM; at HePTP it was greater than 50 µM; at CD45, greater than 50 µM. Further, on SHP2 (Lineweaver-Burk, FIG. 2), the “mode of inhibition of the SHP2-catalyzed reaction” value is “competitive inhibitors”. This substance also gave a Ki at SHP2 (pNPP, 25° C., pH 7.0) of 1.6 ± 0.1 µM. Moreover, the “effect on TCR-mediated tyrosine phosphorylation” value in assay [1] was “efficiently attenuated”.
